Measurements reported in US5424185A, “Human high-affinity neurotransmitter uptake system” (Baylor College of Medicine, priority 1990, dated 1995).
“And” between values parts separate entries of the source, which are not always exact repeats. Equal entries are not always repeated. Where two headings read alike, the source gives them in different places.

Legend:
[1] = target: T1, human 5HT transporter (L-S1 cells) (Homo sapiens, UniProt P31645); assay: [3H]-5-HT uptake by L-S1 cells; format: cell-based
T1 construct: expressed in transfected cells; host or cells: mouse L-M fibroblasts (ATCC CCL 1.2) transfected with total human genomic DNA and pSV2neo; clone L-S1
Method: The cells were incubated at 37° C. for an additional 40 min.
L-S1 and L-M cells were preplated into 96-well culture plates. For uptake assays, the growth medium was removed from each well and the cells rinsed several times with oxygenated Ringer's buffer supplemented with 0.5 mM pargyline and 0.5 mM ascorbate. […] […] […] The cells remaining in the wells were lysed with 1% sodium dodecyl sulphate (SDS) and transferred to counting vials containing 5 ml of ACS scintillant (Amersham), for liquid scintillation spectrometry. For each assay, 6-8 parallel sets of wells were assayed simultaneously.
(§1) Non-specific activity was determined from parallel assays carried out at 0° C. Initial velocities were calculated in terms of pmol/mg protein/min by subtracting velocity values obtained at 0° C. from those obtained at 37° C.
(§2) Cells were assayed in the presence of each inhibitor for 40 minutes at 37° C., washed with Ringer's buffer and prepared for counting as previously described. Five confluent wells were assayed at each inhibitor concentration. The IC50 value for each inhibitor was determined by plotting the percent activity against the logarithm of inhibitor concentration. Measured levels of uptake in the presence of inhibitors were expressed as the percentage of maximal uptake (100 %) in the absence of inhibitor.

[2] = target: T2, human 5HT transporter (L-S2 cells) (Homo sapiens, UniProt P31645); assay: [3H]-5-HT uptake by L-S2 cells; format: cell-based
T2 construct: expressed in transfected cells; host or cells: mouse L-M fibroblasts (ATCC CCL 1.2) transfected with total human genomic DNA and pSV2neo; clone L-S2
Method: (§3) L-S1 and L-M cells were preplated into 96-well culture plates. For uptake assays, the growth medium was removed from each well and the cells rinsed several times with oxygenated Ringer's buffer supplemented with 0.5 mM pargyline and 0.5 mM ascorbate. […] The radioligand was added to a final concentration of 0.1 μM and incubated with the cells at 37° C. for 40 minutes. The incubation mixture was then removed and each well was washed three times at room temperature with Ringer's buffer. The cells remaining in the wells were lysed with 1% sodium dodecyl sulphate (SDS) and transferred to counting vials containing 5 ml of ACS scintillant (Amersham), for liquid scintillation spectrometry. For each assay, 6-8 parallel sets of wells were assayed simultaneously.
as §1, §2

Rat Synaptosomes = conditions: literature values; read-out: Representative IC50, Rat Synaptosomes; cited from earlier work
Human Platelets = conditions: literature values; read-out: Representative IC50, Human Platelets; cited from earlier work
NCCc1c[nH]c2ccc(O)cc12 [3] = system: T3, NCCc1c[nH]c2ccc(O)cc12; assay: [3H]-5-HT uptake by L-S1 cells; format: cell-based, human; conditions: other: 10 min, 37° C. minus 0° C., Lineweaver-Burk
T3 construct: expressed in transfected cells; host or cells: mouse L-M fibroblasts (ATCC CCL 1.2) transfected with total human genomic DNA and pSV2neo; clone L-S1

[4] = system: GABA transporter (L-GAB1 cells); assay: [3H]GABA uptake by L-GAB1 cells; format: cell-based, human; conditions: for effect of GABA uptake inhibitors on [3H]GABA uptake by L-GAB1 cells: inhibitor 1 to 100 μM
Method: Using concentrations of [^3 H] GABA ranging from 2 to 500 μM, the kinetic profile of GABA uptake was determined for both L-GAB1 and L-M cells. The initial velocity of GABA uptake was measured and plotted against the corresponding [^3 H] GABA concentration for both cell lines. […] The velocity profile for L-GAB1 cells was subtracted by that of L-M cells, and the resulting data used for a double-reciprocal plot of velocity-^1 against GABA concentration-^1. The velocity profile for L-M cells was also transformed into a double-reciprocal plot.
Several known inhibitors of high-affinity GABA uptake were used to examine their efficacies in inhibiting [^3 H] GABA uptake by L-GAB1 cells. […] Each of these agents was used at several concentrations ranging from 1 to 100 μM in assays of [^3 H] GABA uptake by L-GAB1 cells. […] GABA uptake by L-GAB1 cells.
L-GAB1 cells were also analyzed in terms of their ligand-specificity in the high-affinity GABA uptake mechanism.

[5] = system: neuronal and glial GABA uptake systems in the CNS; conditions: literature, cited from earlier work; for IC50: neuronal and glial uptake systems, read-out: IC50, high-affinity GABA uptake in the CNS
[6] = system: Cultured Astrocytes (rat); conditions: read-out: Representative IC50, Cultured Astrocytes (rat); literature values; cited from earlier work
L-M cells [7] = assay: [3H]-5-HT uptake by untransfected L-M cells; format: cell-based, mouse
Method: as §3, with “For each assay, 6-8 parallel sets of wells were assayed simultaneously.” left out
as §1
as §2, with “Five confluent wells were assayed at each inhibitor concentration.” left out

[8] = system: human L-glutamate transporter (L-Glul cells); assay: L-[3H]glutamate uptake by L-Glul cells; format: cell-based; conditions: unlabelled neurotransmitters, EAA receptor ligands, co-transporter inhibitors
Method: Both L-Glul and L-M cells were assessed for their kinetic properties of [^3 H] Glu uptake, and the results were analyzed by fitting to Michaelis-Menten kinetics. This was done by incubating cells with differing concentrations of [^3 H] Glu (ranging from 0.05 to 2 μM) for 10 minutes, at both 37° C. and 0° C. The amount of [^3 H] Glu retained by the cells following incubation was then quantitated and converted (using the manufacturer's specific activity for [^3 H] Glu to the corresponding picomole-equivalent of the radioligand, for each concentration of radioligand at each temperature. Then, the pmol value is normalized by the length of incubation and the amount of protein corresponding to the number of cells assayed. The resulting value, expressed in units of pmol/min/mg protein, is the initial velocity value for each concentration of [^3 H] Glu at each temperature. The initial velocity measured at 37° C. represents total initial velocity; the initial velocity measured at 0° C. represents nonspecific initial velocity. The difference between these two velocity values is then the specific initial velocity, denoted by "V", for each concentration of [^3 H] Glu.
Various drugs specific for excitatory amino acid (EAA) receptor subtypes were assessed for their effects on [^3 H] Glu uptake by L-Glul cells.
Glu uptake by L-Glul cells.

L-M cells [9] = conditions: 2 to 500 μM [3H]GABA, low-affinity system
Rabbit Platelets = conditions: read-out: Representative IC50, Rabbit Platelets; literature value; cited from earlier work
Purified Synaptosomes = conditions: literature value, reference printed beside it; read-out: Representative IC50, Purified Synaptosomes; cited from earlier work
Synaptosomes = conditions: literature values; read-out: Representative IC50, Synaptosomes; cited from earlier work
NCCc1c[nH]c2ccc(O)cc12 [10] = system: T4, NCCc1c[nH]c2ccc(O)cc12; assay: [3H]-5-HT uptake by L-S2 cells; format: cell-based, human; conditions: other: 10 min, 37° C. minus 0° C., Lineweaver-Burk
T4 construct: expressed in transfected cells; host or cells: mouse L-M fibroblasts (ATCC CCL 1.2) transfected with total human genomic DNA and pSV2neo; clone L-S2

[11] = ligand 10 μM, 10 min preincubation, 0.1 μM [3H]-5HT, 40 min, 37° C. (FIG. 1)

T1 sequence (P31645 whole entry): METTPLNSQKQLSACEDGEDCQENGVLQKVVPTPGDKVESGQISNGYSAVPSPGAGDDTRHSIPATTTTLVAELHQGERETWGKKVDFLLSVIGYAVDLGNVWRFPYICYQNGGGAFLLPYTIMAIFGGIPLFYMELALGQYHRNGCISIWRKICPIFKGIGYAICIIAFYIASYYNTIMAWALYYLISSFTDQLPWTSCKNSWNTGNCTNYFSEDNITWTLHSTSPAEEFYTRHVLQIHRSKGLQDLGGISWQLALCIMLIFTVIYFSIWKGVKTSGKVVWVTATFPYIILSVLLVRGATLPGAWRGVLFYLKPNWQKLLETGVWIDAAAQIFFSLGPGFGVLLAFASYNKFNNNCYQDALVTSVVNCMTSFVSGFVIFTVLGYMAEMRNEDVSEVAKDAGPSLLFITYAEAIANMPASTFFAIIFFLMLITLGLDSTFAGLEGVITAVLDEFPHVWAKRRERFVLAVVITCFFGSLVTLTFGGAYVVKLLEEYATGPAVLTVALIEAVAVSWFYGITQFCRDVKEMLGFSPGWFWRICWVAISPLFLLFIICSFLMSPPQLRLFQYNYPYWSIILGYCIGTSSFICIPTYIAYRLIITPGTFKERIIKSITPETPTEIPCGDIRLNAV
T2 sequence (P31645 whole entry): as above

With c1ccc2c3c([nH]c2c1)CNCC3 [Tryptoline] the IC50 [1] was 4 µM, the “inhibition of [3H]-5-HT uptake in words, L-S1” value [1] was “relatively ineffective” and the IC50 [2] was 8 µM. The “inhibition of [3H]-5-HT uptake in words, L-S2” value [2] was “relatively ineffective”, the IC50 (Rat Synaptosomes) was 2.5 µM and the IC50 (Human Platelets) was 3.8 µM.

Work on “human 5HT transporter (L-S1 cells) (Homo sapiens)” yielded a Km (NCCc1c[nH]c2ccc(O)cc12 [3]) of 0.390 ± 0.096 µM and a Vmax (NCCc1c[nH]c2ccc(O)cc12 [3]) of 2.14 ± 0.55 pmol/mg/min.

For NCCC(N)C(=O)O (stereo not shown) [DABA, 2,4-diaminobutyric acid], the “inhibition of total [3H]GABA uptake by L-GAB1 cells” value ([4]; effect saturating by 100 μM) is listed as “less than 20%”, the “effect of GABA uptake inhibitors on [3H]GABA uptake by L-GAB1 cells” value [4] is listed as “some effect” and the IC50 [5] is listed as 10 to 200 µM.

In the case of O=C(O)[C@@H]1CNCC[C@@H]1O (relative stereo) [4-cis-OHNA, 4-cis-hydroxynipecotic acid], the “effect of GABA uptake inhibitors on [3H]GABA uptake by L-GAB1 cells” value [4] is given as “without measurable effect” and the IC50 [5] is given as 10 to 200 µM.

In the case of CN(C)CCC=C1c2ccccc2CCc2ccccc21 [Amitriptyline, amitriptyline], the IC50 [6] is given as 0.14 µM.

In the case of NCCc1c[nH]c2ccc(O)cc12 [5-HT, serotonin], the “effect of excess unlabelled 5-HT on [3H]5-HT uptake, L-S1” value ([1]; kinetic assay, Lineweaver-Burk) is reported as “significantly inhibited”, the “effect of competing ligand on [3H]-5HT uptake, L-S1” value [1, 11] is reported as “significantly inhibited” and the “effect of excess unlabelled 5-HT on [3H]5-HT uptake, L-S2” value ([2]; kinetic assay, Lineweaver-Burk) is reported as “significantly inhibited”. The “effect of competing ligand on [3H]-5HT uptake, L-S2” value [2, 11] was “significantly inhibited”, the “effect on 5-HT uptake activity of untransfected L-M cells” value (L-M cells [7]) was “unaffected” and the “effect on [3H]Glu uptake by L-Glul cells” value [8] was “only unlabelled L-glutamate seems to mediate some inhibition”. The IC50 (Rat Synaptosomes) was 0.15 µM.

For NCCc1c[nH]c2ccccc12 [Tryptamine, tryptamine], the IC50 [1] is listed as 0.13 µM, the IC50 [2] is listed as 0.9 µM and the IC50 (Rat Synaptosomes) is listed as 2.8 µM. For the same molecule, the IC50 (Human Platelets) was 2.7 µM.

In the case of CNCCCN1c2ccccc2CCc2ccccc21 [Desipramine, desipramine], the IC50 [6] is listed as 0.62 µM.

For NCCCC(=O)O [GABA, γ-aminobutyric acid], the “transport Vmax of GABA, additional component in L-GAB1 cells” value ([4]; 2 to 500 μM [3H]GABA, L-M profile subtracted) was 2.4 pmol/min/mg protein, the Km ([4]; 2 to 500 μM [3H]GABA, L-M profile subtracted, read-out: transport Km of GABA, additional component in L-GAB1 cells) was 110 µM and the “transport Vmax of GABA, system common to L-M and L-GAB1, L-GAB1 cells” value ([4]; 2 to 500 μM [3H]GABA, low-affinity system) was 2.1 pmol/min/mg protein. For the same molecule, the Km ([4]; 2 to 500 μM [3H]GABA, low-affinity system, read-out: transport Km of GABA, system common to L-M and L-GAB1, L-GAB1 cells) was 697 µM, the “transport Vmax of GABA, L-M cells” value (L-M cells [9]) was 2.1 pmol/min/mg protein and the Km (L-M cells [9]; read-out: transport Km of GABA, L-M cells) was 697 µM. For the same molecule, the Km ([5]; read-out: Km of high-affinity GABA transport systems in the CNS) was < 25 µM and 50 to 100 µM.

For CNCCC=C1c2ccccc2CCc2ccccc21 [Nortriptyline, nortriptyline], the IC50 (Rabbit Platelets) is listed as 0.9 µM.

For CN(C)CCCN1c2ccccc2CCc2ccccc21 [Imipramine, imipramine], the “effect of competing ligand on [3H]-5HT uptake, L-S1” value [1] was “significantly inhibited”, the “effect of competing ligand on [3H]-5HT uptake, L-S2” value [2] was “significantly inhibited” and the “mechanism of inhibition of 5-HT uptake, L-S2” value [2] was “competitive inhibition”. For the same molecule, the “effect on 5-HT uptake activity of untransfected L-M cells” value (L-M cells [7]) was “unaffected”, the IC50 (Purified Synaptosomes) was 0.21 µM and the IC50 (Synaptosomes) was 0.1 µM. For the same molecule, the IC50 [6] was 0.14 µM.

For “human 5HT transporter (L-S2 cells) (Homo sapiens)”, the Km (NCCc1c[nH]c2ccc(O)cc12 [10]) was 0.234 ± 0.027 µM and the Vmax (NCCc1c[nH]c2ccc(O)cc12 [10]) was 1.33 ± 0.13 pmol/mg/min.
